# Results taken from BindingDB's records for PubMed 10215699 (Gliatech, 1999).
# Values joined by “and” are separate entries in the source; they are usually repeats but may differ in a detail not shown here. Equal entries are not always repeated.
# Molecular target: Histamine H3 receptor (Homo sapiens, UniProt Q9Y5N1)
# Sequence (Q9Y5N1 whole entry): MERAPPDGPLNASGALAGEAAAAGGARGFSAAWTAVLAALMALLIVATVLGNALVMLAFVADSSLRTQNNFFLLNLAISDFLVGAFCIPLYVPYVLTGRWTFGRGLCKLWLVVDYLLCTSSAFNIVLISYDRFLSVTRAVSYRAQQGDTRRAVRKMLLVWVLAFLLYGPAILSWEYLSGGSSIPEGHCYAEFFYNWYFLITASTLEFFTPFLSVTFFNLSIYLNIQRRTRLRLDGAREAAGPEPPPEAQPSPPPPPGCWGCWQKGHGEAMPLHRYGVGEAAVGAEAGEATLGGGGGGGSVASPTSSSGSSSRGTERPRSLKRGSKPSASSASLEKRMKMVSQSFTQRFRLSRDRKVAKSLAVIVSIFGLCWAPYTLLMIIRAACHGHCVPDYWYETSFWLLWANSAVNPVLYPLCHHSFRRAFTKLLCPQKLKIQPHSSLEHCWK
row,Ki,Compound
1,3.2 nM,C(=CCCC1CCCCC1)CCc1cnc[nH]1 [GT 2228]

# Molecular target: Histamine H2 receptor (Homo sapiens, UniProt P25021)
# Sequence (P25021 whole entry): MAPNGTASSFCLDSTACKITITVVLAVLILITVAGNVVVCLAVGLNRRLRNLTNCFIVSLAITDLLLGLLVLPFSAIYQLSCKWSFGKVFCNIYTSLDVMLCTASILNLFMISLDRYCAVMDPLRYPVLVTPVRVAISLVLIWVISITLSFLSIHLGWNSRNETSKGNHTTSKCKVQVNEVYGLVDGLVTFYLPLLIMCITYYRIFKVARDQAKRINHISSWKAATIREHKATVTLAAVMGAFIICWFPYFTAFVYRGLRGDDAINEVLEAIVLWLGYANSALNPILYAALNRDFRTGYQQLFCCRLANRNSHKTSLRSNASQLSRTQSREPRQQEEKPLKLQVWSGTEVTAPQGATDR
row,Ki,Compound
1,4470 nM,C(=CCCC1CCCCC1)CCc1cnc[nH]1 [GT 2228]

# Molecular target: Hrh3 protein (Rattus norvegicus, UniProt Q5PPG3)
# Sequence (Q5PPG3 whole entry): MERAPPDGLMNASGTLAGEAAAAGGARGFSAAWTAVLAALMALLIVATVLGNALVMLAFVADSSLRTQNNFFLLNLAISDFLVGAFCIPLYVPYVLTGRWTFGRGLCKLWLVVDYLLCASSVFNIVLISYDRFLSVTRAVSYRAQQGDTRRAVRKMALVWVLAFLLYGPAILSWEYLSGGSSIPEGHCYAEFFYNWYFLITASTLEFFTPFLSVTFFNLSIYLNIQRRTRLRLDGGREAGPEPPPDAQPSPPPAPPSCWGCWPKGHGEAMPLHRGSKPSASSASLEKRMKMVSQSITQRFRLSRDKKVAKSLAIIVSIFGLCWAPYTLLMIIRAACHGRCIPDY
row,Compound,Ki
1,CC(C)(C)CCC#CCCc1c[nH]cn1,0.83 nM
2,N[C@@H](Cc1ccccc1)C(=O)NCCc1c[nH]cn1 [GT 2130],104 nM
3,N[C@H](Cc1ccccc1)C(=O)NCCc1c[nH]cn1 [GT 2136],2810 nM
4,N[C@@H](CC1CCCCC1)C(=O)NCCc1cnc[nH]1 [GT 2140],31 nM
5,CN[C@@H](Cc1ccccc1)C(=O)NCCc1c[nH]cn1 [GT 2142],1590 nM
6,N[C@H](C(=O)NCCc1c[nH]cn1)c1ccccc1 [GT 2146],630 nM
7,N[C@@H](CCc1ccccc1)C(=O)NCCc1c[nH]cn1 [GT 2148],11 nM
8,O=C(CCCC1CCCCC1)NCCc1cnc[nH]1 [GT 2174],16 nM
9,C(=CCCC1CCCCC1)CCc1cnc[nH]1 [GT 2228],4.2 nM and 15.2 nM
10,N[C@H](C=CCCc1cnc[nH]1)CC1CCCCC1 [GT 2231],1 nM
11,C(=CCCc1cnc[nH]1)CCc1ccccc1 [GT 2327],5.5 nM

# Continued, values first:
row,Ki,Compound
1,2.9 nM,C(#CCCC1CCCCC1)CCc1c[nH]cn1 [GT 2260]
2,0.95 nM,C(#CCCC1CCCC1)CCc1c[nH]cn1 [GT 2286]
3,3.4 nM,C(#CCCc1c[nH]cn1)CCCC1CCCCC1 [GT 2287]
4,1030 nM,C(#Cc1c[nH]cn1)CCCC1CCCCC1 [GT 2288]
5,75 nM,c1ncc(CCCCCCC2CCCCC2)[nH]1 [GT 2321]
